Tests used:
[1] = Stability of stannous compounds to air oxidation, 2.5 hours (Table XI); format: physicochemical; details: 40 ml saline and 1 ml 1N HCl
Experimental: Four salts of stannous compounds were each dissolved in a solution of 40 ml of saline and 1 ml of 1N HCl which was purged with nitrogen. The stannous concentration was measured and then the solution was subjected to oxidation conditions by bubbling air through the solution for 2.5 hours. The stannous concentration was again measured.

[2] = Stability of various stannous compounds to air oxidation, one hour (Table XII); format: physicochemical; details: for Stannous Concentration Before Aeration: 98 ml saline containing 2 ml 1N HCl; for Stannous Concentration After Aeration / % Not Oxidized tin: air bubbled for one hour; for % Not Oxidized tin: 60 min
Experimental: Six salts of stannous compounds were each dissolved in 98 ml of saline containing 2 ml 1N HCl. The solutions were analyzed in order to measure the stannous ion concentration and then were subjected to oxidation conditions by bubbling air through the solutions for one hour. The solutions were analyzed again. […]

Row | SMILES | Stannous Concentration Before Aeration [1] | Stannous Concentration Before Aeration [2] | Stannous Concentration After Aeration [2] | % Not Oxidized tin [2] | Stability to air oxidation (in words) ([2]; one hour air)
1 | [Cl][Sn][Cl] [Stannous Chloride, stannous chloride, reference compound] | 9.3 mg/mL | 0.138 mg/mL | 0.085 mg/mL | 61.6% | –
2 | O=C([O-])[C@H](O)[C@@H](O)C(=O)[O-].[Sn+2] [Stannous Tartrate, stannous tartrate] | 18.0 mg/mL | 0.247 mg/mL | 0.213 mg/mL | 86.2% | more stable than stannous chloride with tartrate or citrate ion present
